Test results: patent US6455541B1, “Suppression, by 5-lipoxygenase inhibitors, of bone resorption” (Board of Regents, The University of Texas System, priority 1994, dated 2002)
“And” between values parts separate entries of the source, which are not always exact repeats. Equal values may be shown once.

Key:
neonatal mouse calvariae = experiment: Neonatal mouse (murine) calvarial assay, 45Ca release; assay type: cell-based; settings: for 45Ca release, Factor alone (Table II): IL-1 5 × 10^−10M, TNF 2 × 10^−10M, Lymphotoxin 5 × 10^−9M, PTH 4 ng/ml
Protocol: The assay was performed as described by Gowen et al. (1983). Timed pregnant mice were injected with ^45Ca 2 days before parturition. Half-calvaria were removed from the 1-2-day-old pups and preincubated for 24 h in BGJb medium at 37° C. in a humidified atmosphere of 5% CO2 before transfer to fresh media with or without test substances for 48 h. The bones were incubated for a further 72 h and media and bones collected. Bone-resorbing activity was expressed as the percentage of the total ^45Ca released into the medium.

C433 cells = experiment: Production of osteoclast-stimulating activity by C433 cells (conditioned medium bioassayed for TRAP in avian osteoclasts); assay type: cell-based, human; settings: flurbiprofen 10^−5 M; indomethacin 10^−6 M; nordihydroguaiaretic acid 10^−6, 10^−5 or 10^−4 M
Protocol: FIG. 3A, FIG. 3B, FIG. 3C and FIG. 3D. Chemical characterization of activity. FIG. 3A. C433-conditioned medium was treated with ultraviolet-light (UV) for 24 h or placed in a boiling water bath (100° C.) for 15 min and bioassayed. FIG. 3B. amino peptidase M (A), carboxypeptidase (C), or Pronase-CB (P) were incubated in the presence of C433-conditioned medium for 12 h at 37° C. FIG. 3C. […] The resultant conditioned medium was bioassayed for activity. FIG. 3D. […] Conditioned medium was bioassayed for induction of TRAP activity in avian osteoclasts.
C433 cells were grown in 10% fetal bovine serum (Whittaker, Walkersville, Md.) 50% RPMI, 50% McCoys (Flow, McLean, Va.) until a density of 10^4 cells/ml was obtained, at which time the cells were harvested, washed, and placed in serum-free DMEM plus 10^−8 M, 1,25-(OH)2D3 for 48 h before harvest of conditioned medium. […] This conditioned medium was applied to a prewetted C18 Sep-Pak (Millipore, Waters, Milford, Mass.), and bound material was extracted using ethyl acetate. This material was dried under nitrogen and resuspended in water, it acetic acid and analyzed by high pressure measure liquid chromatography (HPLC) (Waters, Milford, Mass.) applied to a C8 semipreparative 25 cm×10 mm reverse phase column (Keystone Scientific, Inc., Bellefonte, Pa.) at 2 ml/min. The gradient was 0-100% methanol, 1% acetic acid over 60 min with 6-ml fractions collected. The fractions were dried under nitrogen, and those fractions to be assayed for osteoclast stimulating activity were stabilized with 20 μl of 10% bovine serum albumin. Fractions to be used for gas chromatography-mass spectrometric analysis were prepared for derivatization.

[1] = test system: isolated avian osteoclasts; experiment: TRAP activity in isolated avian osteoclasts; assay type: cell-based, Gallus domesticus; settings: 10^−8 M stimulates suboptimally
Protocol: Avian osteoclasts were isolated from medullary bone of laying White Leghorn hens Gallus domesticus (Pioneer Animal Supply, Kingswheel, Ohio) as described previously by Zambonin-Zallone and Teti (1981). In brief, bone marrow suspensions from the medullary bone of femora were filtered through Nytex cloth (110 μm, t'etko, Elmsford, N.Y.), centrifuged for 5 min at 1200 rpm, and the cell pellet resuspended in 0.2% NaCl for 3 min to lyse erythrocytes. After layering the cells on 100% fetal bovine serum for 1 h, sedimented cells were further filtered through Nytex filters (55 μm). Cells were harvested, resuspended in α-minimal Eagle's medium (GIBCO) containing 10 fetal bovine serum, with penicillin (100 units/ml), streptomycin (100 μg/ml), and Ara-C, to inhibit proliferation of nonosteoclastic cells. Cells were plated in 24- or 48-well plates (Costar, Cambridge, Mass.) at 1×10^4 cells/well and incubated at 37° C. in 10% CO2 humidified air for 48 h, after which they were washed to remove nonadherent cells. When matured osteoclasts were observed experiments were begun and terminated within 48 h.
Osteoclast TRAP activity was measured using fluorescence spectroscopy as described by Chambers et al. (1987) with minor modifications. In brief, media from osteoclast cultures were harvested and stored at −70° C. until ready for assay.
The cells were washed with phosphate-buffered saline and harvested in 0.5 ml of Triton X-100 (0.05%, w/v). Aliquots of media or lysate 30 μl) were incubated with 170 μl of 2 mM methylumbelliferyl phosphate, pH 5.0, in 0.48 M acetate buffer (0.48 M sodium acetate, 0.48 M acetic acid, pH 5.0) and 30 mM tartaric acid. Samples were incubated for 30 min at 37° C. and the reaction terminated with 100 μl of stop solution containing 50 mM glycine, 50 mM EDTA, pH 10.4. Fluorescence was measured at excitation 360 nm and emission 448 nm using a fluorimeter (Fluoroskan, Flow Instruments). Enzyme activity was expressed as micromoles of methylumbelliferyl phosphate hydrolyzed/min/μg of protein and the protein content measured by the technique of Lowry et al. (1951).

isolated rat osteoclasts = experiment: Disaggregated rat osteoclast pit formation assay on sperm whale dentine; assay type: cell-based
Protocol: Quantitation of the effects of isolated osteoclasts on calcified matrices was determined using minor modifications of the disaggregated osteoclast resorption assay as described by Boyde et al. (1984). Sperm whale dentine (0.25×7×7 mm) was prepared using a Buehler low speed diamond saw (Buehler, Lake Bluff, Ill.) followed by sonication (15 min) in several changes of distilled water. Slices were sterilized using ultraviolet light.
Neonatal Sprague-Dawley rats (2-3 days) were sacrificed by decapitation, the femurs and tibias were removed, scraped free of adherent tissue, and trimmed free of the epiphyses. The bones from one litter were combined and quickly minced using a scalpel blade in 2 ml of 199 medium and then vigorously mixed with a pipette in an 8-ml tube, allowed to settle for 10 s, and then 100 μl of the suspension was added to each well for a total of 16 wells in a 48-well microtiter plate containing sperm whale dentine (approximately four neonates are used per 16 wells). The cells were incubated at 37° C. for 30 min at which time the dentine was removed, washed in media, and placed in a fresh 48-well plate containing 250 μl of test medium.
Osteoclasts were stained for TRAP and counted and then pit numbers were counted following toluidine blue (0.1% w/v) staining by light microscopy. The plan area of matrix resorbed was quantitated using a computer-assisted morphometric program on a Bioquant System IV analysis system (R & M Biometrics, Nashville, Tenn.).
Quantitation of the effects of isolated neonatal rat osteoclasts on calcified matrices was determined using minor modifications of the disaggregated osteoclast resorption assay as described by Boyde et al (1984). Briefly rat osteoclasts isolated as described by Chambers et al. (1983) were dispersed on prewetted (AMEM plus 5% FBS) slices of sperm whale dentine. Cultures were performed in 48 well-microtiter plates in humidified air (10% CO2) at 37° C. in αMEM medium (one slice/well in 200 μl medium). Numbers of osteoclasts and resorption lacunae were quantitated as described above for the avian osteoclasts.

[2] = 1,25D3 10^−10M + MK886 2.5 μg/ml
[3] = IL-1 1 × 10^−10M + MK886 2.5 μg/ml

CCCCC/C=C\C[C@@H](O)/C=C/C=C/C=C\[C@@H](O)CCCC(=O)O [LTB4]
stimulation of bone resorption in neonatal mouse calvariae (in words) (neonatal mouse calvariae): found to stimulate osteoclastic bone resorption | concentration showing statistically significant resorption stimulation (neonatal mouse calvariae; dose response, FIG. 8C): 10^−8 to 10^−6 M

COc1ccc2c(c1)c(CC(=O)O)c(C)n2C(=O)c1ccc(Cl)cc1 [indomethacin]
effect on production of C433 activity (C433 cells): no significant effects

CCCCC/C=C\C\C=C/C=C/C=C/[C@@H](SC[C@H](N)C(=O)NCC(=O)O)[C@@H](O)CCCC(=O)O [LTD4, leukotriene D4]
concentration of optimal stimulation of TRAP activity [1]: 10^−10 M

CC(C)c1ccc2c(c1)c(SC(C)(C)C)c(CC(C)(C)C(=O)O)n2Cc1ccc(Cl)cc1 [MK886]
inhibition of PTH and PTHrP-induced bone resorption (isolated rat osteoclasts; NDGA 10^−6M, MK886 1 μg/ml, ZM 230,487 10 ng/ml, 20 hours): inhibition of the bone resorption was seen | order of inhibitory effectiveness (isolated rat osteoclasts; PTH and PTHrP-induced bone resorption, NDGA 10^−6M, MK886 1 μg/ml, ZM 230,487 10 ng/ml): ZM230487>MK886>NDGA | inhibition of 1,25(OH)2 vitamin D3-induced bone resorption (in words) (neonatal mouse calvariae; 1,25(OH)2 vitamin D3 as factor): significantly inhibited | 45Ca release, factor + MK886 (neonatal mouse calvariae; [2]): 32.1% | % Inhibition (neonatal mouse calvariae; [2]): 23.4% | % Inhibition (neonatal mouse calvariae; AAY4 LPS 25 μg/ml + MK886): 20.9% | Ca^45 Release, LPS + MK886 (neonatal mouse calvariae; AAY4 LPS 25 μg/ml + MK886 (concentration not given)): 22.6% | inhibition of LPS-induced bone resorption (in words) (neonatal mouse calvariae; AaY4 LPS and/or WR14 LPS): only mildly inhibited | 45Ca release, factor + MK886 (neonatal mouse calvariae; [3]): 34.9% | % Inhibition (neonatal mouse calvariae; [3]): 23.0% | inhibition of IL-1-induced bone resorption (in words) (neonatal mouse calvariae; IL-1 as factor): significant inhibition of Interleukin-1 induced bone resorption was not noted | 45Ca release, MK886 alone (neonatal mouse calvariae; MK886 2.5 μg/ml, no factor): 9.6% and 14.2% | % Inhibition (neonatal mouse calvariae; WR14 LPS 50 ng/ml + MK886): 8.2% | Ca^45 Release, LPS + MK886 (neonatal mouse calvariae; WR14 LPS 50 ng/ml + MK886 (concentration not given)): 32.8%

CC(C(=O)O)c1ccc(-c2ccccc2)c(F)c1 (centres unmarked) [Flurbiprofen, flurbiprofen]
effect on production of C433 activity (C433 cells): no significant effects

CCCCC/C=C\C\C=C/C=C/C=C/[C@@H](SC[C@H](N)C(=O)O)[C@@H](O)CCCC(=O)O [LTE4, leukotriene E4]
stimulation of pit formation (isolated rat osteoclasts; 10^−10 M): stimulated

IL-1: interleukin-1, bone resorbing factor
45Ca release, factor alone (Table IV) (neonatal mouse calvariae; 1,25D3 10^−10M, IL-1 1 × 10^−10M): 38.9% | 45Ca release, Factor alone (Table II) (neonatal mouse calvariae; 1,25D3 10^−10M): 27.7% and 31.2% | 45Ca release, Factor alone (Table VII) (neonatal mouse calvariae; IL-1β 5 × 10^−10M, TNF 5 × 10^−10M, LPS WR14 50 ng/ml): 32.0%

B1: PTH: parathyroid hormone (protein, UniProt P01270 32-115, looked up)
Parathyroid hormone: SVSEIQLMHNLGKHLNSMERVEWLRKKLQDVHNFVALGAPLAPRDAGSQRPRKKEDNVLVESHEKSLGEADKADVNVLTKAKSQ
modifications: Parathyroid hormone
45Ca release, Factor alone (Table II) (neonatal mouse calvariae; 1,25D3 10^−10M): 37.0% and 39.9% and 29.8% | % Total Calcium Released, PTH alone (Table VI) (neonatal mouse calvariae; PTH 10 ng/ml): 30.5 ± 2.4%

B2: Lymphotoxin: bone resorbing factor (protein, UniProt P01374 35-205, looked up)
Lymphotoxin-alpha: LPGVGLTPSAAQTARQHPKMHLAHSTLKPAAHLIGDPSKQNSLLWRANTDRAFLQDGFSLSNNSLLVPTSGIYFVYSQVVFSGKAYSPKATSSPLYLAHEVQLFSSQYPFHVPLLSSQKMVYPGLQEPWLHSMYHGAAFQLTQGDQLSTHTDGIPHLVLSPSTVFFGAFAL
45Ca release, Factor alone (Table II) (neonatal mouse calvariae; 1,25D3 10^−10M): 35.0% and 42.8%
